Test results reported in patent publication US12016860B2, “Combination therapies with Cbl-b inhibitor compounds” (Nurix Therapeutics, Inc., priority 2021, dated 2024).

Tests used:
[1] = tested on: BT549 tumor cell line; test: Caspase 3/7 apoptosis Incucyte assay with paclitaxel, BT549; type: cell-based; conditions: 0.1 μM compound 23, 0.002 μM paclitaxel, vs 0.05% DMSO, combination also vs single agents p<0.0001
Method: (§1) BT549 cells were seeded in duplicate into tissue culture treated black-sided, clear-bottom 96-well plates at 5,000 ^cells/well and allowed to adhere and establish for 24 h. Cells were treated with DMSO, compound 23, or Paclitaxel either alone or in combination and were labelled with 1× Essen Bioscience IncuCyte® Caspase-3/7 Green Reagent (final concentration 5 μM). Treated plates were imaged every 2 hours for 48 hours with the IncuCyte® S3 Live-Cell Analysis System. At each timepoint, one image per well was taken in both brightfield and FITC channels on the IncuCyte® S3 Live-Cell Analysis System. Images were analyzed for number of green objects per mm^2 using the IncuCyte S3 v2017A software.
Using a caspase 3/7 apoptosis Incucyte® assay, the effect of compound 23, paclitaxel and the combination of compound 23 and paclitaxel on tumor cell apoptosis was assessed in the BT549 tumor cell line (a mammary gland carcinoma) in vitro.

[2] = tested on: DoTc 4510 (BRCA2 mutated) cells; test: Caspase 3/7 apoptosis Incucyte assay with olaparib, DoTc 4510; type: cell-based; conditions: vs 0.05% DMSO, combination also vs single agents p<0.0001
Method: as §1, with “BT549 (BRCA wild type) (A) and DoTc 4510 (BRCA2 mutated) (B) cells were” for “BT549 cells were”, “plates at 5,000^cells/well and allowed” for “plates at 5,000 ^cells/well and allowed”, “treated with indicated concentrations of DMSO, compound” for “treated with DMSO, compound”, “23, or Olaparib (FIGS. 13A and 13B) either alone” for “23, or Paclitaxel either alone”, “hours for 72 hours with” for “hours for 48 hours with”

[3] = tested on: BT549 (BRCA wild type) cells; test: Caspase 3/7 apoptosis Incucyte assay with olaparib, BT549; type: cell-based; conditions: 1 μM compound 23, 0.05 μM olaparib, vs 0.05% DMSO, combination also vs single agents p<0.0001
Method: as §1, with “BT549 (BRCA wild type) (A) and DoTc 4510 (BRCA2 mutated) (B) cells were” for “BT549 cells were”, “plates at 5,000^cells/well and allowed” for “plates at 5,000 ^cells/well and allowed”, “treated with indicated concentrations of DMSO, compound” for “treated with DMSO, compound”, “23, or Olaparib (FIGS. 13A and 13B) either alone” for “23, or Paclitaxel either alone”, “hours for 72 hours with” for “hours for 48 hours with”
Using a caspase 3/7 apoptosis Incucyte assay, the effect of compound 23, PARPi and the combination of compound 23, and PARPi on tumor cell apoptosis was assessed in both BRCA wild type and mutated tumor cell lines in vitro.

[4] = tested on: Raji cells; test: Raji human non-Hodgkin's lymphoma model in SCID mice, combination with rituximab
Method: Female CB17 mice with severe combined immunodeficiency (SCID) were intravenously (IV) injected in the tail vein with Raji cells on Day 0 and treated from Day 5 to Day 37 by administration of either: vehicle (0.5% methylcellulose, 0.2% Polysorbate 80 in deionized water+1 eq HCl) daily, orally (PO) or compound 23 at 30 mg/kg daily, PO. Anti-CD20 antibody (rituximab) at 20 mg/kg was intraperitoneally (IP) administered on Day 5, 10, and 15, either alone or in combination with compound 23 at 30 mg/kg daily, PO.

CC(=O)O[C@H]1C(=O)[C@@]2(C)[C@H]([C@H](OC(=O)c3ccccc3)[C@]3(O)C[C@H](OC(=O)[C@H](O)[C@@H](NC(=O)c4ccccc4)c4ccccc4)C(C)=C1C3(C)C)[C@]1(OC(C)=O)CO[C@@H]1C[C@@H]2O [paclitaxel, reference compound]
tumor cell apoptosis (caspase 3/7) [1]: did not undergo a significant increase in apoptosis

O=C(c1cc(Cc2n[nH]c(=O)c3ccccc23)ccc1F)N1CCN(C(=O)C2CC2)CC1 [olaparib, reference compound]
tumor cell apoptosis (caspase 3/7) [2]: did not significantly increase tumor cell apoptosis
tumor cell apoptosis (caspase 3/7) [3]: did not undergo a significant increase in apoptosis

rituximab [reference compound]
survival compared to untreated mice ([4]; compound 23 30 mg/kg daily PO, rituximab 20 mg/kg IP Day 5, 10, 15, p<0.0001): significantly higher
survival compared to mice treated with the combination of compound 23 and rituximab ([4]; p<0.0001): significantly lower
